Assay results: US6683211B1, “Phenyl-propargylether derivatives” (priority 2000, dated 2004)

Key:
Plasmopara viticola [1] = experiment: D-1a) residual-protective action against Plasmopara viticola on vines; assay type: in vivo; details: Plasmopara viticola, 144 h; 200 ppm; test D-1a) residual-protective; vine seedlings; evaluated after 6 days; read-out: inhibit fungal infestations
Method: (§1) D-1: Action Against Plasmopara viticola on Vines
(§2) a) Residual-protective Action
Vine seedlings are sprayed at the 4- to 5-leaf stage with a spray mixture (0.02% active ingredient) prepared from a wettable powder formulation of the test compound. After 24 hours, the treated plants are infected with a sporangia suspension of the fungus. Fungus infestation is evaluated after incubation for 6 days at 95-100% relative humidity and +20° C.

Phytophthora [2] = experiment: D-2a) residual-protective action against Phytophthora on tomato plants; assay type: in vivo; details: Phytophthora, 120 h; 200 ppm; test D-2a) residual-protective, evaluated after 5 days, read-out: inhibit fungal infestations
Method: (§3) D-2: Action Against Phytophthora on Tomato Plants
as §2
After a cultivation period of 3 weeks, tomato plants are sprayed with a spray mixture (0.02% active ingredient) prepared from a wettable powder formulation of the test compound. After 48 hours, the treated plants are infected with a sporangia suspension of the fungus. Fungus infestation is evaluated after incubation of the infected plants for 5 days at 90-100% relative humidity and +20° C.

Phytophthora [3] = experiment: D-3b) systemic action against Phytophthora on potato plants; assay type: in vivo; details: Phytophthora, 96 h; 200 ppm; test D-3b) systemic (soil watering); potato plants (Bintje); evaluated after 4 days; read-out: inhibit fungal infestations
Method: (§4) D-3: Action Against Phytophthora on Potato Plants
2-3 week old potato plants (Bintje variety) are watered with a spray mixture (0.02% active ingredient based on the volume of the soil) prepared from a wettable powder formulation of the test compound. […] After 48 hours, the treated plants are infected with a sporangia suspension of the fungus. Fungus infestation is evaluated after incubation of the infected plants for 4 days at 90-100% relative humidity and +20° C. Fungal infestation is effectively controlled with compounds of Tables 1 to 35. Compounds E1.003, E1.004, E1.009, E1.011, E1.012, E1.019, E1.020, E1.021, E1.022, E1.025, E1.031, E1.032, E1.033, E1.038, E1.045, E1.049, E1.050, E1.053, E1.085, E1.089, E1.090, E1.091, E1.102, E1.110, E1.112, E1.121, E1.125, E1.129 at 200 ppm inhibit fungal infestations in both tests D-3a) and D-3b) by 80-100%.

Phytophthora [4] = experiment: D-3a) residual-protective action against Phytophthora on potato plants; assay type: in vivo; details: Phytophthora, 96 h; 200 ppm; test D-3a) residual-protective; potato plants (Bintje); evaluated after 4 days; read-out: inhibit fungal infestations
Method: as §4, §2
2-3 week old potato plants (Bintje variety) are sprayed with a spray mixture (0.02% active ingredient) prepared from a wettable powder formulation of the test compound. After 48 hours, the treated plants are infected with a sporangia suspension of the fungus. Fungus infestation is evaluated after incubation of the infected plants for 4 days at 90-100% relative humidity and +20° C.

Phytophthora [5] = experiment: D-2b) systemic action against Phytophthora on tomato plants; assay type: in vivo; details: Phytophthora, 96 h; 200 ppm; test D-2b) systemic (soil watering), evaluated after 4 days, read-out: inhibit fungal infestations
Method: as §3
After a cultivation period of 3 weeks, tomato plants are watered with a spray mixture (0.02% active ingredient based on the volume of the soil) prepared from a wettable powder formulation of the test compound. […] After 96 hours, the treated plants are infected with a sporangia suspension of the fungus. Fungus infestation is evaluated after incubation of the infected plants for 4 days at 90-100% relative humidity and +20° C. […] Compounds E1.003, E1.004, E1.009, E1.011, E1.012, E1.014, E1.018, E1.019, E1.020, E1.021, E1.022, E1.023, E1.025, E1.031, E1.032, E1.033, E1.038, E1.040, E1.044, E1.045, E1.049, E1.050, E1.053, E1.055, E1.057, E1.064, E1.085, E1.089, E1.090, E1.091, E1.102, E1.08, E1.110, E1.112, E1.121, E1.125, E1.129, E1.139 and E1.141 at 200 ppm inhibit fungal infestations in both tests D-2a) and D-2b) by 80-100%.

Plasmopara viticola [6] = experiment: D-1b) residual-curative action against Plasmopara viticola on vines; assay type: in vivo; details: Plasmopara viticola, 144 h; 200 ppm; test D-1b) residual-curative; vine seedlings; evaluated 6 days after infection; read-out: inhibit fungal infestations
Method: as §1
b) Residual-curative Action
Vine seedlings are infected at the 4- to 5-leaf stage with a sporangia suspension of the fungus. After incubation for 24 hours in a humidity chamber at 95-100% relative humidity and +20° C., the infected plants are dried and sprayed with a spray mixture (0.02% active ingredient) prepared from a wettable powder formulation of the test compound. After the spray coating has dried, the treated plants are placed in the humidity chamber again.
Fungus infestation is evaluated 6 days after infection.

C#CCOc1ccc(CCNC(=O)C(OCC#C)c2ccc(C)cc2)cc1OC (stereo not drawn) [Compound E1.045, 2-(4-tolyl)-N-[2-(3-methoxy-4-prop-2-ynyloxy-phenyl)-ethyl]-2-prop-2-ynyloxy-acetamide]
inhibition at 200 ppm (Plasmopara viticola [1]): 80 to 100%
inhibition at 200 ppm (Phytophthora [2]): 80 to 100%
inhibition at 200 ppm (Phytophthora [3]): 80 to 100%
inhibition at 200 ppm (Phytophthora [4]): 80 to 100%
inhibition at 200 ppm (Phytophthora [5]): 80 to 100%
inhibition at 200 ppm (Plasmopara viticola [6]): 80 to 100%
melting point: 81 to 82 °C

C#CCOc1ccc(CCNC(=O)C(Cl)c2ccc(Br)cc2)cc1OC (stereo not drawn)
melting point: 100 to 102 °C

C#CCOc1ccc(CCNC(=O)C(OCC#C)c2ccc(Br)cc2)cc1OC (stereo not drawn) [Compound E1.022, 2-(4-bromo-phenyl)-N-[2-(3-methoxy-4-prop-2-ynyloxy-phenyl)-ethyl]-2-prop-2-ynyloxy-acetamide]
inhibition at 200 ppm (Plasmopara viticola [1]): 80 to 100%
inhibition at 200 ppm (Phytophthora [2]): 80 to 100%
inhibition at 200 ppm (Phytophthora [3]): 80 to 100%
inhibition at 200 ppm (Phytophthora [4]): 80 to 100%
inhibition at 200 ppm (Phytophthora [5]): 80 to 100%
inhibition at 200 ppm (Plasmopara viticola [6]): 80 to 100%
melting point: 92 to 94 °C

C#CCOc1ccc(CCNC(=O)C(OCC#CC)c2ccc(Br)cc2)cc1OC (stereo not drawn) [Compound E1.025, 2-(4-bromo-phenyl)-2-but-2-ynyloxy-N-[2-(3-methoxy-4-prop-2-ynyloxy-phenyl)-ethyl]-acetamide]
inhibition at 200 ppm (Plasmopara viticola [1]): 80 to 100%
inhibition at 200 ppm (Phytophthora [2]): 80 to 100%
inhibition at 200 ppm (Phytophthora [3]): 80 to 100%
inhibition at 200 ppm (Phytophthora [4]): 80 to 100%
inhibition at 200 ppm (Phytophthora [5]): 80 to 100%
inhibition at 200 ppm (Plasmopara viticola [6]): 80 to 100%

C#CCOc1ccc(CCNC(=O)C(OCC)c2ccc(Br)cc2)cc1OC (stereo not drawn) [Compound E1.020, 2-(4-bromo-phenyl)-2-ethoxy-N-[2-(3-methoxy-4-prop-2-ynyloxy-phenyl)-ethyl]-acetamide]
inhibition at 200 ppm (Plasmopara viticola [1]): 80 to 100%
inhibition at 200 ppm (Phytophthora [2]): 80 to 100%
inhibition at 200 ppm (Phytophthora [3]): 80 to 100%
inhibition at 200 ppm (Phytophthora [4]): 80 to 100%
inhibition at 200 ppm (Phytophthora [5]): 80 to 100%
inhibition at 200 ppm (Plasmopara viticola [6]): 80 to 100%

C#CCOc1ccc(CCNC(=O)C(OCC#C)c2ccc(Cl)c(Cl)c2)cc1OC (stereo not drawn) [Compound E1.102, 2-(3,4-dichloro-phenyl)-N-[2-(3-methoxy-4-prop-2-ynyloxy-phenyl)-ethyl]-2-prop-2-ynyloxy-acetamide]
inhibition at 200 ppm (Plasmopara viticola [1]): 80 to 100%
inhibition at 200 ppm (Phytophthora [2]): 80 to 100%
inhibition at 200 ppm (Phytophthora [3]): 80 to 100%
inhibition at 200 ppm (Phytophthora [4]): 80 to 100%
inhibition at 200 ppm (Phytophthora [5]): 80 to 100%
inhibition at 200 ppm (Plasmopara viticola [6]): 80 to 100%
